Assay results: patent US20190117596A1 (WAYNE STATE UNIVERSITY, priority 2016, published 2019)
“Also recorded” adds a separate entry of the source.

Experiments:
IL-6 expression = assay: TGF-β-induced IL-6 expression in H1793 lung adenocarcinoma cells (qPCR); type: cell-based, human; conditions: CAY10444 10 μM
Description: FIGS. 14A-14E. S1P3 regulates the TGF-β-stimulated IL-6 expression. (14A) H1793 lung adenocarcinoma cells were pre-treated for 30 min with inhibitor of TGF-β receptor I (SB4, SB431542, 10 uM) or Smad3 (SIS3, 2 uM), followed by stimulating with TGF-β (1 ng/ml) for 4 hrs. Levels of IL-6 were analyzed by qPCR. […] The S1P-induced IL-6 expression is diminished when S1PR3 were knocked-down. (14E) HBEC2-KT normal lung epithelial cells were transduced with adenoviral particles carrying S1PR3 (Ad-S1PR3) or β-galactosidase (Ad-Ctrl, 200 m.o.i.) for overnight, followed by stimulating with or without S1P (200 nM, 4 hrs). mRNA levels of IL-6 were measured by qPCR analysis. Data are mean±SD from a representative experiment (n=3). Each experiment was repeated at least one time with similar results. Data are mean+S.D. (n=3). *, p<0.05; NS, non-statistic significance; t-test.
(§1) Real-time PCR Analysis. Total RNA was isolated using TRIzol reagent (Invitrogen) and was reverse-transcribed with an oligo(dT) primer (Promega) by Moloney Murine Leukemia Virus (M-MLV) Reverse Transcriptase (Promega) for first-strand cDNA synthesis. For real-time PCR quantitation, 50 ng of reversely transcribed cDNAs were amplified with the ABI 7500 system (Applied Biosystems) in the presence of TaqMan DNA polymerase. […]

S1PR3 expression [1] = assay: TGF-β-stimulated S1PR3 up-regulation in HBEC2-KT cells (qPCR); type: cell-based, human; conditions: 30 min pretreatment, SB-431542 10 μM, SIS3 2 μM, SB-203580 50 nM, BAY11-7085 10 μM, JNK inhibitor II 10 μM, TGF-β 4 h
Description: FIGS. 4A-4H. TGF-β/SMAD3 signaling axis up-regulates S1PR3. (4A), HBEC2-KT cells were treated with TGF-β (1 ng/ml) for various times. mRNA levels of S1P receptors were measured by qPCR analysis. Data are mean±S.D. of triplicate determinations. *, p<0.05, Student's t test. (4B), protein levels of S1PR3 in TGF-β (1 ng/ml)-treated HBEC2-KT cells. Lower panel, Western blot intensity was quantitated by National Institutes of Health ImageJ. Data (normalized to actin) are mean±S.D. of triplicate determinations. * and **, p<0.05 and 0.01, respectively, Student's t test. (4C), CHO cells were transduced with adenoviral particles (multiplicity of infection of 200) carrying S1PR1, S1PR2, or S1PR3 vector for 20 h as previously described (8). Extracts were blotted with antibody against S1PR3 (Cayman), S1PR2 (Cayman), or S1PR1 (E49) (8). […] Medium was quantitated for S1P, ceramide (Cer), and sphingomyelin (SPM) by LC-MS/MS (29, 46). […] S1PR3 levels were measured by qPCR, following TGF-β treatment (4 h). […] Activation of p38, JNK, and NFκB was measured by Western blotting with phospho-p38 (P-p38), phospho-JNK (P-p54^JNK and P-p46^JNK), and phospho-IκBα (p-IκBα). […]
Real-time PCR Analysis. […] For real-time PCR quantitation, 50 ng of reversely transcribed cDNAs were amplified with the ABI 7500 system (Applied Biosystems) in the presence of TaqMan DNA polymerase. […]

S1PR3 expression [2] = assay: S1PR3 up-regulation in K-Ras G12V-expressing HEK293 cells (qPCR); type: cell-based; conditions: HEK293 pBabe-K-Ras G12V, anti-TGF-β 10 μg/ml, SB-431542 10 μM, SIS3 2 μM, 37° C., 24 h
Description: FIGS. 3A-3F. TGF-β/SMAD3 signaling contributes to oncogenic K-Ras mutant-stimulated S1PR3 up-regulation. (3A), P, potential SMAD3 binding sites in S1PR3 promoter. 0, transcription initiation site. (3B-3D), HEK293 cells were stably transfected with pBabe-K-Ras^G12V or pBabe control vector. Levels of total cellular K-Ras (3B), S1PRs (3C), and TGF-β (3D) were measured by qPCR analysis. (3E), HEK293 cells transfected with pBabe-K-Ras^G12V or pBabe control vector were incubated with anti-TGF-β (Cell Signaling, antibody number 3711, 10 μg/ml) or irrelevant normal rabbit IgG (10 μg/ml) at 37° C. for 24 h. Levels of S1PR3 were quantitated by qPCR. (3F), HEK293 cells transfected with pBabe-K-Ras^G12V or pBabe control vector were treated with or without SB-431542 (SB4) (inhibitor of TGF-β receptor 1, 10 μM) or SIS3 (inhibitor of SMAD3, 2 μM) at 37° C. for 24 h. Levels of S1PR3 were quantitated by qPCR. **, p<0.01, n=3, Student's t test.
as §1

[3] = system: Lewis lung carcinoma cells; assay: Subcutaneous Lewis lung carcinoma tumor growth in C57BL/6 mice; type: in vivo, mouse; conditions: s.c. LLC cells
Description: (§2) FIGS. 7A-7E. Inhibition of S1PR3 diminishes lung carcinoma growth. (7A), C57BL/6 mice were subcutaneously inoculated with LLC cells (1×10^6 cells). 1 week later, mice were intraperitoneally administered with VPC23019 (1.5 mg/kg of body weight) or control vehicle every 3 days. (7B), S1PR1 and S1PR3 levels in Lewis lung carcinoma cells. -ve, PCR reactions were performed without cDNA. **, p<0.01, n=6, ANOVA. (7C), CHO cells were transduced with adenoviral particles carrying S1PR1, S1PR2, S1PR3, or pcDNA control vector. Cells were serum-starved for 24 h. […] ERK1/2 activation (p-ERK) was measured by Western blotting analysis. (7D), C57BL/6 mice were subcutaneously inoculated with LLC cells (1×10^6 cells). […] (7E), tumor weights were measured 24 days after implantation. **, p<0.01, n=6, ANOVA.
Tumor Growth and Lung Colonization in Mice. All animal procedures were performed according to the National Institutes of Health and institutional guidelines, and were approved by the Wayne State University Animal Use and Care Committee. For subcutaneous implantation, lung carcinoma cells were adjusted to 1×10^7 cells/ml. Mice were injected with 0.1 ml of cell suspension into the subcutaneous dorsa in the proximal midline. […] Tumor volume was measured in two dimensions using calipers, and volume was determined using the formula width 2×length×0.52 (49). […]

S1PR2 = target: T1, S1PR2 (Homo sapiens, UniProt O95136); assay: S1P-stimulated ERK1/2 activation in CHO cells transduced with S1PR2 (Western blot p-ERK); type: cell-based; conditions: TY-52156 10 μM, 10 min, then S1P 200 nM
T1 construct: expressed in transfected cells; host or cells: CHO cells, adenoviral transduction
Description: as §2
(§3) Western Blotting Analysis. Protein extraction and Western blotting were performed as described (11). Briefly, cells were collected in ice-cold PBS using cell scrapers followed by centrifugation (500×g, 5 min). […] After centrifugation at 15,000×g for 20 min, supernatant was collected and protein concentration was measured using a bicinchoninic acid protein assay kit with BSA as standard. […]

lung adenocarcinoma = assay: Lung adenocarcinoma in LSL-KRas G12D mouse model (Ad-Cre); type: in vivo; conditions: Ad-Cre injected mice; 10 mg/kg i.p. every two days; lungs analyzed 2 months later
Description: FIGS. 8A-AD. […] Mice were injected with or without Ad-Cre. Lungs were analyzed for adenocarcinoma 2 months later. (8A) LSL-KRas^G12D injected with Ad-Cre. (8B) LSL-KRas^G12D injected with Ad-Cre. […] (8C) LSL-KRas^G12D mice injected with Ad-Ctrl. (8D) wild-type C57BL/6 mice injected with Ad-Cre. Arrows, lung adenocarcinomas. Scale bar=[…].

S1PR1 = target: T2, S1PR1 (Homo sapiens, UniProt P21453); assay: S1P-stimulated ERK1/2 activation in CHO cells transduced with S1PR1 (Western blot p-ERK); type: cell-based; conditions: TY-52156 10 μM, 10 min, then S1P 200 nM
T2 construct: expressed in transfected cells; host or cells: CHO cells, adenoviral transduction
Description: as §2, §3

[4] = system: human lung adenocarcinoma cells exhibiting K-Ras G12D mutation; assay: Proliferation and colony formation of cultured lung adenocarcinoma cells; type: cell-based

T1 sequence (O95136 whole entry, species assumed): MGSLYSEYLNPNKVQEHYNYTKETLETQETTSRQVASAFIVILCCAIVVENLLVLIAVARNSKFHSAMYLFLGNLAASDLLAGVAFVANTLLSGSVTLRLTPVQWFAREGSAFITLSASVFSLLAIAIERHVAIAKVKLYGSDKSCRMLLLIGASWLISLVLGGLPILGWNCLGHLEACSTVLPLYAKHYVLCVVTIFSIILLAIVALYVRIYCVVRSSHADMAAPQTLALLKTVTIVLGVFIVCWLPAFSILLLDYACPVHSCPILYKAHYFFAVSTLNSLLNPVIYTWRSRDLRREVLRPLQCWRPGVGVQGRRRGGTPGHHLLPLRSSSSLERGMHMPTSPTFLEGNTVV
T2 sequence (P21453 whole entry, species assumed): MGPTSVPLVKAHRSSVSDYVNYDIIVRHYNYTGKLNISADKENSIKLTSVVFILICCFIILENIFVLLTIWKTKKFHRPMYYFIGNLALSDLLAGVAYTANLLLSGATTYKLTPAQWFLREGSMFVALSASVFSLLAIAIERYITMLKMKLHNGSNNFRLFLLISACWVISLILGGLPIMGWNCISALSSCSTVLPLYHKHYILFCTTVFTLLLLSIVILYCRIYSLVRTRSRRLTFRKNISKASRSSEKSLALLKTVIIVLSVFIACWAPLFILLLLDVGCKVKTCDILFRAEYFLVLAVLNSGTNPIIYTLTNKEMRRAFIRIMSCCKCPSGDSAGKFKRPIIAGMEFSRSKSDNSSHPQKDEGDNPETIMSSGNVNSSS

Compound: CCCCCCCCCCCC1N[C@H](C(=O)O)CS1 (some centres unmarked) [CAY10444]
- TGF-β-induced IL-6 expression (IL-6 expression): significantly diminished

Compound: NC(=O)c1ccc(-c2nc(-c3ccc4c(c3)OCO4)c(-c3ccccn3)[nH]2)cc1 [SB-431542]
- TGF-β-stimulated S1PR3 up-regulation (S1PR3 expression [1]): abrogated
- S1PR3 up-regulation in K-Ras G12V-expressing cells (S1PR3 expression [2]): abrogated

Compound: COc1cc2c(cc1OC)CN(C(=O)/C=C/c1c(-c3ccccc3)n(C)c3ncccc13)CC2 [SIS3]
- TGF-β-stimulated S1PR3 up-regulation (S1PR3 expression [1]): abrogated
- S1PR3 up-regulation in K-Ras G12V-expressing cells (S1PR3 expression [2]): abrogated

Compound: CC(C)(C)C(=O)/C(=N/c1ccc(Cl)cc1)NNc1ccc(Cl)cc1 [TY-52156, 1-(4-chlorophenylhydrazono)-1-(4-chlorophenylamino)-3,3-dimethyl-2-butanone]
- growth of Lewis lung carcinoma (tumor volume, tumor weight 24 days after implantation) ([3]; 10 mg/kg intraperitoneally every 2 days from 1 week after inoculation, 10 mg/kg): significantly suppressed; also recorded: significantly diminished
- S1P/S1PR2-stimulated ERK1/2 activation (S1PR2): had no effect
- lung adenocarcinoma in LSL-KRas G12D mouse model (lung adenocarcinoma): significantly inhibits
- S1P/S1PR1-stimulated ERK1/2 activation (S1PR1): had no effect
- proliferation and colony formation [4]: effective in inhibiting

Compound: CCCCCCCCc1cccc(NC(=O)[C@H](N)COP(=O)(O)O)c1 [VPC23019]
- tumor growth ([3]; 1.5 mg/kg intraperitoneally every 3 days from 1 week after inoculation, 1.5 mg/kg): significantly inhibited; also recorded: significantly diminished
